From patent publication US6127339A, “Peptide for binding thereto a low density lipoprotein” (Asahi Kasei Kogyo Kabushiki Kaisha, priority 1995, dated 2000)
No end group written: not given here.

Experiments:
LDL [1] = assay: BIAcore affinity of immobilized peptide to LDL in HBS buffer; format: binding; conditions: 6-minute injection, based on the immobilized amount of RRWFW-CONH2 as standard
Excerpt: (§1) Further, the binding ability (affinity) of the adsorbent for an LDL can also be determined by using BIAcore (manufactured and sold by Pharmacia Biosensor AB, Sweden), in accordance with the instructions given in a manual attached to BIAcore. Specifically, the binding ability of the adsorbent for an LDL can also be determined by a method in which the peptide is immobilized on a sensor chip of the BIAcore, and a solution containing LDL, such as plasma, is flowed over the sensor chip.
Twenty-six different peptides and four different comparative peptides (which are all shown in Table 11; wherein for Example 11, Sample Nos. 1, 4 and 5-26 are SEQ ID NOS:35, 89 and 36-57, respectively, and wherein for Comparative Example 8, Sample Nos. 1, 2, 3 and 4 are SEQ ID NOS:86, 87, 90 and 88, respectively) were prepared in substantially the same manner as in Example 7. […]
The affinity of the peptide to the LDL contained in HBS buffer was measured using the above-mentioned BIAcore (provided with the sensor chip having the peptide immobilized thereon) as follows. […] However, since the amounts of the peptides immobilized on the sensor chip vary depending on the types of the peptides, the amount of a peptide of RRWFW-CONH2 immobilized on the sensor chip was taken as a standard amount and the affinities of various tested peptides were determined, based on the above standard amount.

LDL [2] = assay: BIAcore affinity of immobilized peptide to LDL in plasma; format: binding; conditions: plasma containing 1 mg/ml LDL versus LDL-free plasma; based on the immobilized amount of RRWFW-CONH2 as standard
Excerpt: as §1
Twenty-seven different peptides and four different comparative peptides (which are all shown in Table 12, wherein for Example 12, Sample Nos. 12-15 are SEQ ID NOS:12-15, respectively) were prepared in substantially the same manner as in Example 7. Each of the obtained peptides was individually dissolved in a 10 mM acetate buffer (pH: 5.5) to thereby obtain peptide solutions each having a peptide concentration of […]. […]
The affinity of the peptide to the LDL in plasma was measured using the above-mentioned BIAcore (provided with the sensor chip having the peptide immobilized thereon) as follows. […]

DPSVY-CONH2 (DPSVY-NH2)
Affinity to LDL (RU) (LDL [1]): 310 RU | Affinity to LDL (RU) (LDL [2]): 250 RU

EMEEV-CONH2 (EMEEV-NH2)
Affinity to LDL (RU) (LDL [1]): 730 RU | Affinity to LDL (RU) (LDL [2]): 270 RU
